Active and inactive are the calls of the source.

For experiment [1], the target named is Bifunctional protein GlmU (Mycobacterium tuberculosis, UniProt P9WMN3). Description: Inhibitors of Mycobacterial Glucosamine-1-phosphate acetyl transferase (GlmU). Secondary screen. Also on record: species or system Mycobacterium tuberculosis H37Rv.
The target in experiment [2] is Induced myeloid leukemia cell differentiation protein Mcl-1 (Homo sapiens, UniProt Q07820). It counts as functional.
Experiment [3] concerns the target T1, Intestinal-type alkaline phosphatase (Mus musculus, UniProt P24822). Description: PubChem AID 488785. The experiment is classed as functional.
Experiment [4] has as its target Aminopeptidase N (Plasmodium falciparum FcB1/Columbia, UniProt O96935). Put plainly: P. falciparum M1AAP inhibitors, biochemical, fluorogenic H-Leu-NHMec substrate, 1536-well (AID 1445). Set-up: species or system Plasmodium falciparum 3D7, 3D7.
Experiment [5] has as its target T2, Alkaline phosphatase, tissue-nonspecific isozyme (Homo sapiens, UniProt P05186).
T2 sequence (P05186 whole entry): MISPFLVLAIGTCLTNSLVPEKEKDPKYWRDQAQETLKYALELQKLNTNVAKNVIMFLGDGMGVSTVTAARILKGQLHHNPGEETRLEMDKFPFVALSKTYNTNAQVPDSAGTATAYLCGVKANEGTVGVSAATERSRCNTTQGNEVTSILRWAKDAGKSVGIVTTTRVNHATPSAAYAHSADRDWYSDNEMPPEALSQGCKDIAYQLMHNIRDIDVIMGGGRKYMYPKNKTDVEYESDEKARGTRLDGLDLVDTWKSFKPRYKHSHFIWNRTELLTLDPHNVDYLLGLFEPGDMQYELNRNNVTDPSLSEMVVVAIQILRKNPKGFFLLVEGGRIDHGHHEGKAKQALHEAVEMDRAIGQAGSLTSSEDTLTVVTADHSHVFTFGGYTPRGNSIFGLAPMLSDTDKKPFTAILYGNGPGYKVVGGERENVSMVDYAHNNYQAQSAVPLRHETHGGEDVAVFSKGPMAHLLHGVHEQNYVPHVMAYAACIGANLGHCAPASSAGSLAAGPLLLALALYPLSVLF
Put plainly: TNAP enzyme inhibition by screening hits, dose response, selectivity assay for mouse IAP inhibitor project, biochemical, human TNAP, uHTS hits (AID 488906). The experiment is classed as functional.

Experiment [6] addresses T3, Intestinal-type alkaline phosphatase (Homo sapiens, UniProt P09923). Description: inhibition of human intestinal alkaline phosphatase – biochemical, dose response (AID 488876). The experiment is classed as functional.
The target of experiment [7] is Large T antigen (Simian virus 40, UniProt P03070). It counts as functional, Betapolyomavirus macacae.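 Further: Confirmatory-stage PubChem screen for compounds that inhibit SV40 T antigen.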
Experiment [8] has as its target T4, Calpain-2 catalytic subunit (Sus scrofa, UniProt P43367).
T4 sequence (P43367 whole entry): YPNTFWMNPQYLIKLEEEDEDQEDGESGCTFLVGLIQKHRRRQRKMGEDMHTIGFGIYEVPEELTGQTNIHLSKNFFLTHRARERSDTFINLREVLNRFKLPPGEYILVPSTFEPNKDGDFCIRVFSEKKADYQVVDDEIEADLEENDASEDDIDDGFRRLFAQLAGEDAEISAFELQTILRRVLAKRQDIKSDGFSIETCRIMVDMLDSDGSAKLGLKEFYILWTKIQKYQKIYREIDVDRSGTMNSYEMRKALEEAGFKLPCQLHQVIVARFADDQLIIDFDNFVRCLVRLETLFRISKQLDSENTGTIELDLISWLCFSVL
Description: pig calpain II inhibitor potency, dose response, biochemical, fluorogenic peptide substrate (AID 1420). It counts as functional.

The target in experiment [9] is Lysine-specific demethylase 4C (Homo sapiens, UniProt Q9H3R0). Description: GASC-1 (JMJD2C) histone demethylase inhibitors, dose response, biochemical, DELFIA europium, cherry-picked samples (AID 488835). It counts as functional.
Experiment [10] concerns the target T3, Intestinal-type alkaline phosphatase. Description: human IAP activators, dose response, biochemical, luminescent, uHTS hits, set 2 (AID 488817).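 Further: potency of activators that raise enzyme activity.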 It counts as functional.
For experiment [11], the target named is T5, RNA-binding protein pos-1 (Caenorhabditis elegans, UniProt G5EF15).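 Further: purified POS-1 fused to maltose binding protein made in E. coli; potency of compounds blocking POS-1 binding to fluorescent RNA.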
T5 sequence (G5EF15 whole entry): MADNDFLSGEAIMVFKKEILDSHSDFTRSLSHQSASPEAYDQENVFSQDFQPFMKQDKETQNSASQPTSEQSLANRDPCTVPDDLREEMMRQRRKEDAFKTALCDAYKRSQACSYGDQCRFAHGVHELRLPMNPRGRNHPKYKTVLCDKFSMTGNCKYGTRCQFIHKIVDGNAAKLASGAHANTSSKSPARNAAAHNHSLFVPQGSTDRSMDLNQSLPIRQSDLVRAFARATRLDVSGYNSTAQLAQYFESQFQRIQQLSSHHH
Description: inhibitors of POS-1/mex-3 RNA binding, dose response, biochemical, fluorescence polarization (AID 1964). (In general: In fluorescence polarisation assays a small probe gives low polarisation when free and higher when bound to something large.)

The target of experiment [12] is T2, Alkaline phosphatase, tissue-nonspecific isozyme. Description: TNAP enzyme activators, dose response, selectivity assay for human IAP activator project, biochemical, TNAP isozyme, human IAP uHTS hits (AID 488886).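 Further: potency of compounds raising TNAP activity as a selectivity check on IAP activators.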 It counts as functional.
Experiment [13] addresses T1, Intestinal-type alkaline phosphatase. Description: PubChem AID 488874. The experiment is classed as functional.
Experiment [14] has as its target T6, Zinc finger protein mex-5 (Caenorhabditis elegans, UniProt Q9XUB2).
T6 sequence (Q9XUB2 whole entry): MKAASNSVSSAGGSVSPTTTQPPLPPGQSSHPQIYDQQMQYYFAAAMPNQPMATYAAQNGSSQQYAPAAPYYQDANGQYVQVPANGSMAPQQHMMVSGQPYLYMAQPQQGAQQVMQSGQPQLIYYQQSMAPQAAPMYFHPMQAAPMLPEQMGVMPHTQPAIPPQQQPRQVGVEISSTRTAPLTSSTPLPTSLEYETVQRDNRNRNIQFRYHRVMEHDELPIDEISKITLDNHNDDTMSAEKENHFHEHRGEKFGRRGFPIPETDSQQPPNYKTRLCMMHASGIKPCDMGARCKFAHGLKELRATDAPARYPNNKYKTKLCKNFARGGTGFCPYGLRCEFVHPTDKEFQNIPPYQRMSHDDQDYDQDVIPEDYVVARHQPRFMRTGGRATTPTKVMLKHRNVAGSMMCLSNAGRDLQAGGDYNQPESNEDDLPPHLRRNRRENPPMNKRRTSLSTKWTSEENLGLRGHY
Description: MEX-5/TCR-2 RNA interaction inhibitors, dose response, biochemical, C. elegans, fluorescence polarization (AID 1960).

Experiment [15] addresses T3, Intestinal-type alkaline phosphatase. Put plainly: human intestinal alkaline phosphatase activators, dose response, biochemical, luminescence, uHTS hits (AID 463120). The experiment is classed as functional.
The target of experiment [16] is G-protein coupled receptor 55 (Homo sapiens, UniProt Q9Y2T6). Description: GPR55 antagonists, SAR follow-up, counter-screen for GPR35 antagonist project, imaging, image-based (AID 2397). It counts as functional.
Sequence of G-protein coupled receptor 55 (Q9Y2T6 whole entry): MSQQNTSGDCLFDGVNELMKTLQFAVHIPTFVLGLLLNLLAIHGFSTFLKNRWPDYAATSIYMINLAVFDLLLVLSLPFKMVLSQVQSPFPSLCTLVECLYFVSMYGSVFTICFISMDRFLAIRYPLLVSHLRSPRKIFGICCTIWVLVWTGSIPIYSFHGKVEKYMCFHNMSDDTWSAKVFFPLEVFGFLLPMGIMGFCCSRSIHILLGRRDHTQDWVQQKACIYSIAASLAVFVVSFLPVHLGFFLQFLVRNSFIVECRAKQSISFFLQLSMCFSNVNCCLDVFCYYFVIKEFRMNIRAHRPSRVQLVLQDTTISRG

T3 sequence (P09923 whole entry): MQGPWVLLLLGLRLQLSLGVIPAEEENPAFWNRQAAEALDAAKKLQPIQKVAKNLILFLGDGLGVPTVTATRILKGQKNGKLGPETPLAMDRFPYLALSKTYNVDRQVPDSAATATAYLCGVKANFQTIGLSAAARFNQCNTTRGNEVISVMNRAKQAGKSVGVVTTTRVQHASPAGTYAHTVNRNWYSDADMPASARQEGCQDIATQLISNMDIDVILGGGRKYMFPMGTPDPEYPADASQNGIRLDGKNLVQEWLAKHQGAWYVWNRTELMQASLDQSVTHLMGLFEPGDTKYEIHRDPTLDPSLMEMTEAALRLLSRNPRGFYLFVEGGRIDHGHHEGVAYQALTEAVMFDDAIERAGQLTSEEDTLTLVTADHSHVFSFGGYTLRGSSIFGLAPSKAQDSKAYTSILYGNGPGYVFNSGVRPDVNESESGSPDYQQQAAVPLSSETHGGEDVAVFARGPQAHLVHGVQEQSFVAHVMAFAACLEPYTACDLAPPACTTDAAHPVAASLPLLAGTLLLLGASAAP
T1 sequence (P24822 whole entry): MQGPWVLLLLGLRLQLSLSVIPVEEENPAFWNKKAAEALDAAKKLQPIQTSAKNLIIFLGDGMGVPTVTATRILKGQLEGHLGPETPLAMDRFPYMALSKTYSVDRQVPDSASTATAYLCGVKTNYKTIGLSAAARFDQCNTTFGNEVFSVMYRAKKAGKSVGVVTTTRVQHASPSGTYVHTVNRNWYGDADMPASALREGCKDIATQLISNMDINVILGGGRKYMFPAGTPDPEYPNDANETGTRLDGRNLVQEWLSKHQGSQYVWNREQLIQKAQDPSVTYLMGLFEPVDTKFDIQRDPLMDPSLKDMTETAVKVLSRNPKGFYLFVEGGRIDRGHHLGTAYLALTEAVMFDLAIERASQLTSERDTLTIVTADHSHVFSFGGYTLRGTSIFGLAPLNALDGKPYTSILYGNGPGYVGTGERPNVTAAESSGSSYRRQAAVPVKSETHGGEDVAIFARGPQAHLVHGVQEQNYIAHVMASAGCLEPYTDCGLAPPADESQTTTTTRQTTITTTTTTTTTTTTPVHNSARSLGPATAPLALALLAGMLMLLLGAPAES
Sequence of Large T antigen (P03070 whole entry): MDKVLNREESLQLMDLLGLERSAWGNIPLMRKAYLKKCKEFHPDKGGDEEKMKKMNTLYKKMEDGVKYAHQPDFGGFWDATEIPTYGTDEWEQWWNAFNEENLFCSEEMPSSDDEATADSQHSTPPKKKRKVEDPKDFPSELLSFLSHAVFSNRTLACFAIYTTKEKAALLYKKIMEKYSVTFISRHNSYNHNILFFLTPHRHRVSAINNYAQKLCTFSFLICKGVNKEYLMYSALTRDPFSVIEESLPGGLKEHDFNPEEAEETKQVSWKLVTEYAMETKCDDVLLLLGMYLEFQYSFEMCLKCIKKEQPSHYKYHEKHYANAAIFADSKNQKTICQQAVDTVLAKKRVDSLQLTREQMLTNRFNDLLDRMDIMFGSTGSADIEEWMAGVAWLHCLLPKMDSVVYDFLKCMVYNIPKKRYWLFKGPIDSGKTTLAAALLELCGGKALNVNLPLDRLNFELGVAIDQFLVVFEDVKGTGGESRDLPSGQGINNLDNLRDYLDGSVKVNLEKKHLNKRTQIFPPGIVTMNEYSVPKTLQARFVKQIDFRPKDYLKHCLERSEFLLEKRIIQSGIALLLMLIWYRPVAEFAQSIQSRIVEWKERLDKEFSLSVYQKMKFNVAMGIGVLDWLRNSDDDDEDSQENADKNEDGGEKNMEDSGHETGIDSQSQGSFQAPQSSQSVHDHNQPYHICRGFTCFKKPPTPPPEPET
Sequence of Induced myeloid leukemia cell differentiation protein Mcl-1 (Q07820 whole entry): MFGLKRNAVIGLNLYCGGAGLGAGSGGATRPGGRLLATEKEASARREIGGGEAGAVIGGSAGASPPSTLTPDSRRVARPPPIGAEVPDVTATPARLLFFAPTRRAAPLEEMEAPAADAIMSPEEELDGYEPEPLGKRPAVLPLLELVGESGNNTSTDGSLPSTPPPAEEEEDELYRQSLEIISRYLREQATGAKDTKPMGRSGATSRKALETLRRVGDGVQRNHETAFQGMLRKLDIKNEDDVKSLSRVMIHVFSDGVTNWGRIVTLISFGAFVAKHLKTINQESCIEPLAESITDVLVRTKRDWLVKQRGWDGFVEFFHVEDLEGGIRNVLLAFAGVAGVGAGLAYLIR
Sequence of Lysine-specific demethylase 4C (Q9H3R0 whole entry): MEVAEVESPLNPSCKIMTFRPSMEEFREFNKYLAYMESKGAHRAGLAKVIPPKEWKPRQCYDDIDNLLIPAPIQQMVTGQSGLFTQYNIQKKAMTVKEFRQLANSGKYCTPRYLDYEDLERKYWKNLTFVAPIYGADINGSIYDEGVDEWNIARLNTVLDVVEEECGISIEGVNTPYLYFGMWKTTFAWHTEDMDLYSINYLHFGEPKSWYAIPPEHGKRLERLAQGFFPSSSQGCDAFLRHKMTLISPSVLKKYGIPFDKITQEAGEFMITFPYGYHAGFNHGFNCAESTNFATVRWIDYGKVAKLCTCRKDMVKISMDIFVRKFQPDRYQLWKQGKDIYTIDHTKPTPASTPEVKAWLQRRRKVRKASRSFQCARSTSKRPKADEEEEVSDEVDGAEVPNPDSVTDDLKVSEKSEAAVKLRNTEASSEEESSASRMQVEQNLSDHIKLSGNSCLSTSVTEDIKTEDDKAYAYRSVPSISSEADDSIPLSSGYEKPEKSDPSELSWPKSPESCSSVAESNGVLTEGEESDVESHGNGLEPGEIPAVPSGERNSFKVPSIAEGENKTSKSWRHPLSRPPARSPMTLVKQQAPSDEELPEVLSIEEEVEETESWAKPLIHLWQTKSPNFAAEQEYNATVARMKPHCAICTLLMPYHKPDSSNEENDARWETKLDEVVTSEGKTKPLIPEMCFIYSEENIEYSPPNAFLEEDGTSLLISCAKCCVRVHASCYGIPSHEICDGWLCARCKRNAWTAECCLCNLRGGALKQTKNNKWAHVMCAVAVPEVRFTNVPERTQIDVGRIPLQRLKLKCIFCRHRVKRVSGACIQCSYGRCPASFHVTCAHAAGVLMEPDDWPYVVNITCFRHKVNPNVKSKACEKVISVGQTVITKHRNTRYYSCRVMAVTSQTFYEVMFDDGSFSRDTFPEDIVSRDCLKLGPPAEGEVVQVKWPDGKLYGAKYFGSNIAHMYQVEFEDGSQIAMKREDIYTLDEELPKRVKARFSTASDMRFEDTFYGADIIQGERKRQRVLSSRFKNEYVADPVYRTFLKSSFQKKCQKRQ
Sequence of Aminopeptidase N (O96935 whole entry): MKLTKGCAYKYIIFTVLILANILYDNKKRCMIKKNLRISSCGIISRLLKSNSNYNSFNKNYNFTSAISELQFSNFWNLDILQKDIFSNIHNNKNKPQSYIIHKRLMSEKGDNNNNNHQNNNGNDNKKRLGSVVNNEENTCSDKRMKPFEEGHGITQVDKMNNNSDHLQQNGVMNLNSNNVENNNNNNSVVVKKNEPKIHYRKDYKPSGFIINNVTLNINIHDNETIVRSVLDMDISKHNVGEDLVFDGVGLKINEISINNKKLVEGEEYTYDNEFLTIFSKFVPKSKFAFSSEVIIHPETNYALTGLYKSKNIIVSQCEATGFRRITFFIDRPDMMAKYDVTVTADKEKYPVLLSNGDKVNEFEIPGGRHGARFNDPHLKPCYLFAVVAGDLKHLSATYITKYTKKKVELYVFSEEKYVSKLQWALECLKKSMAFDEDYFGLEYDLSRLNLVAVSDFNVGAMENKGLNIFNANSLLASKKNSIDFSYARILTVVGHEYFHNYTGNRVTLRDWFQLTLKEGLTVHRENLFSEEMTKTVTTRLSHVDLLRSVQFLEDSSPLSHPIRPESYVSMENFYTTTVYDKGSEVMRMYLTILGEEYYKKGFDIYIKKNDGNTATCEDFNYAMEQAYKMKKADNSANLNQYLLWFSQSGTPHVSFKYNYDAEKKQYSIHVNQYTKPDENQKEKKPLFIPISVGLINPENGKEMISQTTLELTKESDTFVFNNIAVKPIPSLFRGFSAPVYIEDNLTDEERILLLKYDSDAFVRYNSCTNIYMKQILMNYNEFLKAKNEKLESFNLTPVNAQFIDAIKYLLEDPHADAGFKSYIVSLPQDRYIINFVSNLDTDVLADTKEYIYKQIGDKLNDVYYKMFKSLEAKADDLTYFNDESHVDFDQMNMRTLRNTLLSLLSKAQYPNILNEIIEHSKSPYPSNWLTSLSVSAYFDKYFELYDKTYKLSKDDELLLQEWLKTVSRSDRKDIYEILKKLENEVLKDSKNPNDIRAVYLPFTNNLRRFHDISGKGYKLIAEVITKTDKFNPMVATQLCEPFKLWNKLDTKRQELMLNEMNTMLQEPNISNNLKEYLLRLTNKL

The IC50 is the midpoint of a concentration-inhibition curve. Regarding `O=C(NN1C(=O)/C(=C/C=C/c2ccco2)SC1=S)c1ccccc1O`, the IC50 in experiment [1] is 80.6 µM (active); in experiment [2] it was 2.42 µM (active); in experiment [3], 15.8 µM (active); in experiment [4] it was 73.5 µM (active); in experiment [5], 25.9 µM (active); in experiment [6] it was 30.7 µM (active). Besides, the IC50 in experiment [7] is 18.8 µM (active); in experiment [8], 47.6 µM (not active).
As a reminder, the AC50 is the concentration at which the activity in the assay is half-maximal. In the case of `CN1C(=O)N(C)C(=O)C2(Cc3ccccc3N3CCCC32)C1=O` (stereo unspecified), in experiment [9], the AC50 was 14.2 µM (active).
By EC50 is commonly meant the midpoint of the concentration-response curve. On to `CCOC(=O)c1cnc(-n2nc(C)cc2C)nc1NNc1nc(C)cc(C)n1`, for which the half-maximal effective concentration (EC50) was 21.3 µM (active) in experiment [10]; 65.5 µM (active) in experiment [11]; 21.4 µM (active) in experiment [12]; > 300 µM (inconclusive) in experiment [14]; 8.43 µM (active) in [15]. Besides, the IC50 in [13] was 66 µM (active).
In the case of `Clc1ccc(Cn2ncc3c(N4CCN(c5cccc(Cl)c5)CC4)ncnc32)cc1`, the IC50 in [16] is > 32 µM (inactive).

For the origin of these results see ChEMBL document CHEMBL1201862, “PubChem BioAssay data set” (2004).
